Data from US8431565B2 (priority 2007, dated 2013).

biological target: T1, rat CB2 receptor (rCB2) (Rattus norvegicus, UniProt Q9QZN9)
T1 sequence (Q9QZN9 1-360): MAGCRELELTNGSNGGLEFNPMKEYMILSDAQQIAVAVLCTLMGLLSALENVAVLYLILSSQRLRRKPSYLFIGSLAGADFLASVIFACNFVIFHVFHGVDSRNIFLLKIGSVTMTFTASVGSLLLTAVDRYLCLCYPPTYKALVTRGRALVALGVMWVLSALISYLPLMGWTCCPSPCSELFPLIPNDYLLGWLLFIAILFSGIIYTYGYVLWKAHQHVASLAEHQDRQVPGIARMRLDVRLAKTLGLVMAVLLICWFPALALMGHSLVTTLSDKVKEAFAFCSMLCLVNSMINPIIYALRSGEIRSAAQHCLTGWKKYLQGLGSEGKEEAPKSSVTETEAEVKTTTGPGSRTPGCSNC

SMILES	EC50 [nM]
CC(C)CCNC(=O)c1nc(-c2ccc(Cl)cc2)n2c1CN(CC(C)C)CC2 [Compound 157, 3-(4-chlorophenyl)-7-isobutyl-N-isopentyl-5,6,7,8-tetrahydroimidazo[1,5-a]pyrazine-1-carboxamide]	10 to 100
Cc1noc([C@@H](NC(=O)c2nc(-c3ccccc3)n3c2CN(C2CC2)CC3)C(C)(C)C)n1 [Compound 198, (S)-7-cyclopropyl-N-(2,2-dimethyl-1-(3-methyl-1,2,4-oxadiazol-5-yl)propyl)-3-phenyl-5,6,7,8-tetrahydroimidazo[1,5-a]pyrazine-1-carboxamide]	0.1 to 10
CC(C)CN1CCn2c(-c3ccccc3)nc(C(=O)N[C@H](C)C3CCCCC3)c2C1 [Compound 163, (R)-N-(1-cyclohexylethyl)-7-isobutyl-3-phenyl-5,6,7,8-tetrahydroimidazo[1,5-a]pyrazine-1-carboxamide]	0.1 to 10
CC(C)(C)CNC(=O)c1nc(-c2ccccc2)n2c1CN(S(=O)(=O)c1ccccc1)CC2 [Compound 104, N-neopentyl-3-phenyl-7-(phenylsulfonyl)-5,6,7,8-tetrahydroimidazo[1,5-a]pyrazine-1-carboxamide]	10 to 100
Cc1noc([C@@H](NC(=O)c2nc(-c3ccccc3)n3c2CN(CC2CC2)CC3)C(C)(C)C)n1 [Compound 88, (S)-7-(cyclopropylmethyl)-N-(2,2-dimethyl-1-(3-methyl-1,2,4-oxadiazol-5-yl)propyl)-3-phenyl-5,6,7,8-tetrahydroimidazo[1,5-a]pyrazine-1-carboxamide]	10 to 100
CC(C)CN1CCn2c(-c3ccccc3)nc(C(=O)NCC(C)(C)C)c2C1 [Compound 58, 7-isobutyl-N-neopentyl-3-phenyl-5,6,7,8-tetrahydroimidazo[1,5-a]pyrazine-1-carboxamide]	10 to 100
CCN1CCn2c(-c3ccccc3)nc(C(=O)N[C@H](C)C3CCCCC3)c2C1 [Compound 164, (R)-N-(1-cyclohexylethyl)-7-ethyl-3-phenyl-5,6,7,8-tetrahydroimidazo[1,5-a]pyrazine-1-carboxamide]	10 to 100
CNC(=O)[C@@H](NC(=O)c1nc(-c2ccccc2)n2c1CN(S(=O)(=O)c1ccccc1F)CC2)C(C)(C)C [Compound 98, (S)-N-(3,3-dimethyl-1-(methylamino)-1-oxobutan-2-yl)-7-(2-fluorophenylsulfonyl)-3-phenyl-5,6,7,8-tetrahydroimidazo[1,5-a]pyrqazine-1-carboxamide]	10 to 100
CC(C)CN1CCn2c(-c3ccccc3)nc(C(=O)NC3C4(C)CCC(C4)C3(C)C)c2C1 (centres unmarked) [Compound 142, 7-isobutyl-3-phenyl-N-(1,3,3-trimethylbicyclo[2.2.1]heptan-2-yl)-5,6,7,8-tetrahydroimidazo[1,5-a]pyrazine-1-carboxamide]	10 to 100
Cc1noc([C@@H](NC(=O)c2nc(-c3ccccc3)n3c2CN(C(C)C)CC3)C(C)(C)C)n1 [Compound 89, (S)-N-(2,2-dimethyl-1-(3-methyl-1,2,4-oxadiazol-5-yl)propyl)-7-isopropyl-3-phenyl-5,6,7,8-tetrahydrimidazo[1,5-a]pyrazine-1-carboxamide]	0.1 to 10
CCN1CCn2c(-c3ccc(Cl)cc3)nc(C(=O)NCCC(C)C)c2C1 [Compound 158, 3-(4-chlorophenyl)-7-ethyl-N-isopentyl-5,6,7,8-tetrahydroimidazo[1,5-a]pyrazine-1-carboxamide]	10 to 100
CNC(=O)[C@@H](NC(=O)c1nc(-c2ccccc2)n2c1CN(c1cccc(Cl)n1)CC2)C(C)(C)C [Compound 299, (S)-7-(6-chloropyridin-2-yl)-N-(3,3-dimethyl-1-(methylamino)-1-oxobutan-2-yl)-3-phenyl-5,6,7,8-tetrahydroimidazo[1,5-a]pyrazine-1-carboxamide]	10 to 100
CCN1CCn2c(-c3ccc(Cl)cc3)nc(C(=O)N[C@H](CO)C(C)(C)C)c2C1 [Compound 161, (S)-3-(4-chlorophenyl)-7-ethyl-N-(1-hydroxy-3,3-dimethylbutan-2-yl)-5,6,7,8-tetrahydroimidazo[1,5-a]pyrazine-1-carboxamide]	10 to 100
CC(C)(C)OC(=O)N1CCn2c(-c3ccccc3)nc(C(=O)NC3C4(C)CCC(C4)C3(C)C)c2C1 (centres unmarked) [Compound 30, tert-butyl 3-phenyl-1-(1,3,3-trimethylbicyclo[2.2.1]heptan-2-ylcarbamoyl)-5,6-dihydroimidazo[1,5-a]pyrazine-7(8H)-carboxylate]	10 to 100
COC(=O)[C@@H](NC(=O)c1nc(-c2ccc(C)cc2F)n2c1CN(CC1CC1)CCC2)C(C)(C)C [Compound 470, (S)-methyl 2-(8-(cyclopropylmethyl)-3-(2-fluoro-4-methylphenyl)-6,7,8,9-tetrahydro-5H-imidazo[1,5-a][1,4]diazepine-1-carboxamido)-3,3-dimethylbutanoate]	10 to 100
CNC(=O)[C@@H](NC(=O)c1nc(-c2ccccc2)n2c1CN(S(=O)(=O)c1ccc(F)cc1)CC2)C(C)(C)C [Compound 93, (S)-N-(3,3-dimthyl-1-(methylamino)-1-oxobutan-2-yl)-7-(4-fluorophenylsulfonyl)-3-phenyl-5,6,7,8-tetrahydroimidazo[1,5-a]pyrazine-1-carboxamide]	10 to 100
COC(=O)N1CCn2c(-c3ccc(Cl)cc3)nc(C(=O)NCCC(C)C)c2C1 [Compound 183, methyl 3-(4-chlorophenyl)-1-(isopentylcarbamoyl)-5,6-dihydroimidazol[1,5-a]pyrazine-7(8H)-carboxylate]	10 to 100
CNC(=O)[C@@H](NC(=O)c1nc(/C=C/CN2CCCC2)n2c1CN(C)CC2)C(C)(C)C [Compound 288, (S,E)-N-(3,3-dimethyl-1-(methylamino)-1-oxobutan-2-yl)-7-methyl-3-(3-(pyrrolidin-1-yl)prop-1-enyl)-5,6,7,8-tetrahydroimidazo[1,5-a]pyrazine-1-carboxamide]	0.1 to 10
CNC(=O)[C@@H](NC(=O)c1nc(-c2ccc(-c3ccccc3)cc2)n2c1CN(C)CC2)C(C)(C)C [Compound 265, (S)-3-(biphenyl-4-yl)-N-(3,3-dimethyl-1-(methylamino)-1-oxobutan-2-yl)-7-methyl-5,6,7,8-tetrahydroimidazo[1,5-a]pyrazine-1-carboxamide]	10 to 100
CNC(=O)[C@@H](NC(=O)c1nc(C2=CCC(C)CC2)n2c1CN(C)CC2)C(C)(C)C (stereo partly drawn) [Compound 270, N-((S)-3,3-dimethyl-1-(methylamino)-1-oxobutan-2-yl)-7-methyl-3-(4-methylcyclohex-1-enyl)-5,6,7,8-tetrahydroimidazo[1,5-a]pyrazine-1-carboxamide]	10 to 100
CNC(=O)[C@@H](NC(=O)c1nc(-c2cccc(C(F)(F)F)c2)n2c1CNCC2)C(C)(C)C [Compound 3, (S)-N-(3,3-dimethyl-1-(methylamino)-1-oxobutan-2-yl)-3-(3-(trifluoromethyl)phenyl)-5,6,7,8-tetrahydroimidazo[1,5-a]pyrazin-1-carboxamide]	10 to 100
CNC(=O)[C@@H](NC(=O)c1nc(-c2ccc(Cl)cc2F)n2c1CN(CC(C)C)CCC2)C(C)(C)C [Compound 322, (S)-3-(4-chloro-2-fluorophenyl)-N-(3,3-dimethyl-1-(methylamino)-1-oxobutan-2-yl)-8-isobutyl-6,7,8,9-tetrahydro-5H-imidazo[1,5-a][1,4]diazepine-1-carboxamide]	10 to 100
CNC(=O)[C@@H](NC(=O)c1nc(-c2ccccc2)n2c1CN(C(=O)C(C)C)CC2)C(C)(C)C [Compound 191, (S)-N-(3,3-dimethyl-1-(methylamino)-1-oxobutan-2-yl)-7-isobutyryl-3-phenyl-5,6,7,8-tetrahydroimidazo[1,5-a]pyrazine-1-carboxamide]	10 to 100
CNC(=O)[C@@H](NC(=O)c1nc(-c2ccc(C)cc2F)n2c1CN(C)CC2)C(C)(C)C [Compound 249, (S)-N-(3,3-dimethyl-1-(methylamino)-1-oxobutan-2-yl)-3-(2-fluoro-4-methylphenyl)-7-methyl-5,6,7,8-tetrahydroimidazo[1,5-a]pyrazine-1-carboxamide]	10 to 100
CC(C)CN1CCn2c(-c3ccc(Cl)cc3)nc(C(=O)N[C@H](CO)C(C)(C)C)c2C1 [Compound 160, (S)-3-(4-chlorophenyl)-N-(1-hydroxy-3,3-dimethylbutan-2-yl)-7-isobutyl-5,6,7,8-tetrahydroimidazo[1,5-a]pyrazine-1-carboxamide]	0.1 to 10
CC(C)(C)CNC(=O)c1nc(-c2ccccc2)n2c1CN(S(=O)(=O)c1ccc(F)cc1)CC2 [Compound 103, 7-(4-fluorophenylsulfonyl)-N-neopentyl-3-phenyl-5,6,7,8-tetrahydroimidazo[1,5-a]pyrazine-1-carboxamide]	10 to 100
CNC(=O)[C@@H](NC(=O)c1nc(-c2ccc(C)c(F)c2)n2c1CN(C)CC2)C(C)(C)C [Compound 240, (S)-N-(3,3-dimethyl-1-(methylamino)-1-oxobutan-2-yl)-3-(3-fluoro-4-methylphenyl)-7-methyl-5,6,7,8-tetrahydroimidazo[1,5-a]pyrazine-1-carboxamide]	10 to 100
Cc1ccc(-c2nc(C(=O)N[C@H](c3nc(C)no3)C(C)(C)C)c3n2CCCN(C(C)C)C3)c(F)c1 [Compound 523, (S)-N-(2,2-dimethyl-1-(3-methyl-1,2,4-oxadiazol-5-yl)propyl)-3-(2-fluoro-4-methylphenyl)-8-isopropyl-6,7,8,9-tetrahydro-5H-imidazo[1,5-a][1,4]diazepine-1-carboxamide]	10 to 100
CNC(=O)[C@@H](NC(=O)c1nc(-c2ccccc2)n2c1CN(CC(C)C)CC2)C(C)(C)C [Compound 148, (S)-N-(3,3-dimethyl-1-(methylamino)-1-oxobutan-2-yl)-7-isobutyl-3-phenyl-5,6,7,8-tetrahydroimidazo[1,5-a]pyrazine-1-carboxamide]	10 to 100
